Laboratory results taken from ChEMBL document CHEMBL1130748, “Design and synthesis of monocyclic beta-lactams as mechanism-based inhibitors of human cytomegalovirus protease” (Bioorg Med Chem Lett, 1998).

Columns and labels:
[1] = molecular target: Capsid scaffolding protein (Human cytomegalovirus (strain AD169) (HHV-5) (Human herpesvirus 5), UniProt P16753); assay: Concentration required to inhibit the mutant alpha-Ala HCMV protease by 50% was determined
Human betaherpesvirus 5 [2] = assay: Compound was evaluated for antiviral activity measured as percentage inhibition determined at a concentration of 100 (uM) against mutant alpha-Ala HCMV protease; format: functional
Human betaherpesvirus 5 [3] = assay: Compound was evaluated for antiviral activity measured as percentage inhibition determined at a concentration of 500 (uM) against mutant alpha-Ala HCMV protease; format: functional
Chymotrypsinogen A = Chymotrypsinogen A (Bos taurus, UniProt P00766); assay: Concentration required to inhibit the mammalian Chymotrypsinogen by 50% was determined
[4] = Compound was tested for its stability by HPLC method, value expressed as half life; format: physicochemical
Human betaherpesvirus 5 [5] = assay: Binding affinity towards mutant alpha-Ala HCMV protease was determined; format: functional
Homo sapiens = species on record: Homo sapiens; assay: Concentration required to inhibit the mammalian elastase by 50% was determined; format: functional, organism-based
Acetylcholinesterase = Acetylcholinesterase (Homo sapiens, UniProt P22303); assay: Concentration required to inhibit the mammalian Acetylcholinesterase by 50% was determined
Acetylcholinesterase, sequence (P22303 whole entry): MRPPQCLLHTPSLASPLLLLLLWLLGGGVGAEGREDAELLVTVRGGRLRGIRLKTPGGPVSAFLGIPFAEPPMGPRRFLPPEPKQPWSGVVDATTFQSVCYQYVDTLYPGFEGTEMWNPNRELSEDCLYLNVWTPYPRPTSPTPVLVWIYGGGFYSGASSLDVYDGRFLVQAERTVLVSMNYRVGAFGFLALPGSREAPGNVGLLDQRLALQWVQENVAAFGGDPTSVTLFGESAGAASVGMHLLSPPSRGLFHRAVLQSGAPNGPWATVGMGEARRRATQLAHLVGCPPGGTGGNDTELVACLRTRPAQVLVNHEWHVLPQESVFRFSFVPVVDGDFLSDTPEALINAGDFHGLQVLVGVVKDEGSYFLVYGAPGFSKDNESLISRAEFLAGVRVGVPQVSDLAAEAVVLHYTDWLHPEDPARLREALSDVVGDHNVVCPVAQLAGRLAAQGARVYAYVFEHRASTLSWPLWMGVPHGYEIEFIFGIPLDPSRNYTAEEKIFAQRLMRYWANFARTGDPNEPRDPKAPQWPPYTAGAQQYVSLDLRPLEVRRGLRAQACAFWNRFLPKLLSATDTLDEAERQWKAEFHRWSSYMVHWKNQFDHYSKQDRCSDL

Human betaherpesvirus 5 [6] = assay: 50 % concentration required to inhibit the mutant alpha-Ala HCMV protease was determined; format: functional
Human betaherpesvirus 5 [7] = assay: The compound was evaluated for antiviral activity measured as percentage inhibition determined at a concentration of 100 (uM) against mutant alpha-Ala HCMV protease; format: functional

Capsid scaffolding protein, sequence (P16753 1-256 limits assumed): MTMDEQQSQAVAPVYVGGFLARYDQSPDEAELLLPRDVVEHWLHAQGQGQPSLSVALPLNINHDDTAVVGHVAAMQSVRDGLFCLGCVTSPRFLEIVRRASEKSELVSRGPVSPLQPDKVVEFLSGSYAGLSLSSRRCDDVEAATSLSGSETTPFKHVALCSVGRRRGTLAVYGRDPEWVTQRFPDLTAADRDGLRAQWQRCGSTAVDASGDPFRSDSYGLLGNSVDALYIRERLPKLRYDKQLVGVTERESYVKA

Structure (SMILES) | IC50 [1] [µM] | Inhibition (Human betaherpesvirus 5 [2]) [%] | further results
C[C@@H]1C(=O)N(C(=O)NCc2ccccc2)[C@@H]1Oc1ccc(C(=O)O)cc1 | > 100 | 12 | –
CC(=O)O[C@@H]1CC(=O)N1C(=O)NC(C)C | > 100 | 30 | –
CNC(=O)N1CCC1=O | – | – | Inhibition (Human betaherpesvirus 5 [3]): 7.7%
CC(=O)O[C@@H]1[C@@H](C)C(=O)N1C(=O)NCc1ccccc1 | 6.5 | – | –
CC(=O)OC1CC(=O)N1 (stereo not given) | – | – | Inhibition (Human betaherpesvirus 5 [3]): 0%
C[C@H]1C(=O)N(C(=O)NCc2ccccc2)[C@@H]1Oc1ccc(C(=O)O)cc1 | 20 | – | IC50 (Chymotrypsinogen A): 1.6 µM; half-life [4]: 3.1 h; Ki (Human betaherpesvirus 5 [5]): 5.6 µM; IC50 (Homo sapiens): 3.9 µM; IC50 (Acetylcholinesterase): > 100 µM
CCC1(CC)C(=O)N(C(=O)NC)[C@@H]1OC(C)=O | > 100 | 5 | –
CCNC(=O)N1C(=O)C[C@H]1OC(C)=O | > 100 | 36 | –
C[C@H]1C(=O)N(C(=O)NCc2ccccc2)[C@@H]1Oc1ccc(C(=O)C(C)(C)C)cc1 | 17 | – | IC50 (Chymotrypsinogen A): > 100 µM; half-life [4]: 22.8 h; Ki (Human betaherpesvirus 5 [5]): 5.7 µM; IC50 (Homo sapiens): > 100 µM; IC50 (Acetylcholinesterase): > 100 µM
CNC(=O)N1C(=O)C[C@H]1OC(C)=O | – | 29 | IC50 (Human betaherpesvirus 5 [6]): > 100 µM; Inhibition (Human betaherpesvirus 5 [3]): 68.5%
CC(=O)O[C@@H]1[C@H](C)C(=O)N1C(=O)Nc1ccccc1 | > 100 | – | –
CC(=O)O[C@H]1N(C(=O)NCc2ccccc2)C(=O)C1(C)C | > 100 | 6 | –
CC(=O)O[C@@H]1[C@@H](C)C(=O)N1C(=O)Nc1ccccc1 | 86 | – | –
CCCCNC(=O)N1C(=O)C[C@H]1OC(C)=O | 68 | – | Ki (Human betaherpesvirus 5 [5]): 26 µM
CC[C@H]1C(=O)N(C(=O)NCc2ccccc2)[C@@H]1Oc1ccc(C(=O)O)cc1 | 50 | – | half-life [4]: 7.6 h; Ki (Human betaherpesvirus 5 [5]): 8.3 µM
CC(=O)O[C@@H]1CC(=O)N1C(=O)NCc1ccccc1 | 42 | – | half-life [4]: 0.53 h; Ki (Human betaherpesvirus 5 [5]): 20 µM
C[C@@H]1C(=O)N(C(=O)NCc2ccccc2)[C@@H]1Oc1ccc(C(=O)C(C)(C)C)cc1 | > 100 | 35 | –
O=C(O)c1ccc(O[C@@H]2CC(=O)N2C(=O)NCc2ccccc2)cc1 | > 100 | 48 | half-life [4]: 1.4 h
CC(C)NC(=O)N1C(=O)C[C@H]1Oc1ccc(C(=O)O)cc1 | 100 | 8 | –
CC(=O)O[C@@H]1[C@H](C)C(=O)N1C(=O)NCc1ccccc1 | 27 | – | –
O=C(O)c1ccc(O[C@@H]2CC(=O)N2C(=O)Nc2ccccc2)cc1 | > 100 | 43 | –
CC[C@@H]1C(=O)N(C(=O)NCc2ccccc2)[C@@H]1Oc1ccc(C(=O)O)cc1 | > 100 | – | Inhibition (Human betaherpesvirus 5 [7]): 25%
